Biological target: T1, α-synuclein (recombinant fibrils) (Homo sapiens, UniProt P37840)
T1 construct: gene SNCA; recombinant human α-syn fibrils (pET-3a construct)
Assay: radioligand saturation binding (filtration) on recombinant fibrils

COc1ccc(/C=C/c2cn(-c3ccccc3)nn2)cc1 [50.1, KAC-50.1]
Kd: 35 nM

From PMC11587505, “Identification and In Vitro and In Vivo Characterization of KAC-50.1 as a Potential α-Synuclein PET Radioligand” (ACS Chemical Neuroscience, 2024)
